Data on nine compounds can be found in ChEMBL document CHEMBL1139973, “Synthesis and structure-activity relationships of taxuyunnanine C derivatives as multidrug resistance modulator in MDR cancer cells” (Bioorg Med Chem Lett, 2007).

For data set [1], the system named is A2780. The experiment in a line: Growth inhibition of human A2780 cells. It counts as functional, cell-based.
The nature of data set [2]: Growth inhibition of multidrug-resistant human 2780AD cells. It counts as functional, cell-based. The conditions noted are these: A2780 ADR.
In data set [3] the target is T1, ATP-dependent translocase ABCB1 (Homo sapiens, UniProt P08183). The experiment in a line: Inhibition of Pgp in multidrug-resistant human 2780AD cells assessed as calcein accumulation at 0.25 ug/mL relative to control. It counts as cell-based. Further details: scale not given: the % may be the effect or the level left. The conditions noted are these: a2780 adr.
Data set [4] addresses T1, ATP-dependent translocase ABCB1. The experiment in a line: Inhibition of Pgp in multidrug-resistant human 2780AD cells assessed as calcein accumulation at 25 ug/mL relative to control. Also noted: scale not given: the % may be the effect or the level left. The conditions noted are these: a2780 adr. It counts as cell-based.
Data set [5] is described as follows: Growth inhibition of human WI38 cells. It counts as cell-based. The conditions noted are these: WI-38.
Data set [6] deals with WI-38 VA13. The experiment in a line: Growth inhibition of human VA13 cells. It is filed as functional, cell-based.
The subject of data set [7] is HepG2. The experiment in a line: Growth inhibition of human HepG2 cells. It counts as functional, cell-based.
Data set [8] has as its target T1, ATP-dependent translocase ABCB1. The experiment in a line: Inhibition of Pgp in multidrug-resistant human 2780AD cells assessed as vincristine accumulation at 0.1 ug/mL relative to control. It is filed as cell-based. The settings on record: a2780 adr. Also noted: scale not given: the % may be the effect or the level left.
Data set [9] has the same target. The experiment in a line: Inhibition of Pgp in multidrug-resistant human 2780AD cells assessed as calcein accumulation at 2.5 ug/mL relative to control. It counts as cell-based. Also noted: scale not given: the % may be the effect or the level left. The conditions noted are these: a2780 adr.
The target is the same in data set [10]. The experiment in a line: Inhibition of Pgp in multidrug-resistant human 2780AD cells assessed as vincristine accumulation at 1.0 ug/mL relative to control. Further details: scale not given: the % may be the effect or the level left. It counts as cell-based. The conditions noted are these: a2780 adr.
Data set [11] has the same target. The experiment in a line: Inhibition of Pgp in multidrug-resistant human 2780AD cells assessed as vincristine accumulation at 10 ug/mL relative to control. It counts as cell-based. Further details: scale not given: the % may be the effect or the level left. The settings on record: a2780 adr.
Data set [12] has the same target. The experiment in a line: Inhibition of Pgp in multidrug-resistant human 2780AD cells assessed as vincristine accumulation at 0.1 ug/mL relative to verapamil. It counts as cell-based. Further details: scale not given: the % may be the effect or the level left. The settings on record: a2780 adr.
Data set [13] has the same target. The experiment in a line: Inhibition of Pgp in multidrug-resistant human 2780AD cells assessed as vincristine accumulation at 1.0 ug/mL relative to verapamil. It counts as cell-based. Further details: scale not given: the % may be the effect or the level left. The settings on record: a2780 adr.
Data set [14] has the same target. The experiment in a line: Inhibition of Pgp in multidrug-resistant human 2780AD cells assessed as vincristine accumulation at 10 ug/mL relative to verapamil. It counts as cell-based. Also noted: scale not given: the % may be the effect or the level left. The conditions noted are these: a2780 adr.
The subject of data set [15] is A2780. The experiment in a line: Cytotoxicity against human A2780 cells assessed as cell viability at 0.2 uM. It is filed as functional. The settings on record: read-out: Activity.
Data set [16] concerns A2780. The experiment in a line: Cytotoxicity against human A2780 cells assessed as cell viability at 2 uM. It is filed as functional. The conditions noted are these: read-out: Activity.
For data set [17], the system named is A2780. The experiment in a line: Cytotoxicity against human A2780 cells assessed as cell viability at 10 uM. It is filed as functional. The settings on record: read-out: Activity.
The nature of data set [18]: Cytotoxicity against multidrug-resistant human 2780AD cells assessed as cell viability at 0.2 uM. It is filed as functional. The conditions noted are these: A2780 ADR, read-out: Activity.
The nature of data set [19]: Cytotoxicity against multidrug-resistant human 2780AD cells assessed as cell viability at 2 uM. The conditions noted are these: A2780 ADR, read-out: Activity. It is filed as functional.
Data set [20] is described as follows: Cytotoxicity against multidrug-resistant human 2780AD cells assessed as cell viability at 10 uM. The settings on record: A2780 ADR, read-out: Activity. It counts as functional.

T1 sequence (P08183 whole entry): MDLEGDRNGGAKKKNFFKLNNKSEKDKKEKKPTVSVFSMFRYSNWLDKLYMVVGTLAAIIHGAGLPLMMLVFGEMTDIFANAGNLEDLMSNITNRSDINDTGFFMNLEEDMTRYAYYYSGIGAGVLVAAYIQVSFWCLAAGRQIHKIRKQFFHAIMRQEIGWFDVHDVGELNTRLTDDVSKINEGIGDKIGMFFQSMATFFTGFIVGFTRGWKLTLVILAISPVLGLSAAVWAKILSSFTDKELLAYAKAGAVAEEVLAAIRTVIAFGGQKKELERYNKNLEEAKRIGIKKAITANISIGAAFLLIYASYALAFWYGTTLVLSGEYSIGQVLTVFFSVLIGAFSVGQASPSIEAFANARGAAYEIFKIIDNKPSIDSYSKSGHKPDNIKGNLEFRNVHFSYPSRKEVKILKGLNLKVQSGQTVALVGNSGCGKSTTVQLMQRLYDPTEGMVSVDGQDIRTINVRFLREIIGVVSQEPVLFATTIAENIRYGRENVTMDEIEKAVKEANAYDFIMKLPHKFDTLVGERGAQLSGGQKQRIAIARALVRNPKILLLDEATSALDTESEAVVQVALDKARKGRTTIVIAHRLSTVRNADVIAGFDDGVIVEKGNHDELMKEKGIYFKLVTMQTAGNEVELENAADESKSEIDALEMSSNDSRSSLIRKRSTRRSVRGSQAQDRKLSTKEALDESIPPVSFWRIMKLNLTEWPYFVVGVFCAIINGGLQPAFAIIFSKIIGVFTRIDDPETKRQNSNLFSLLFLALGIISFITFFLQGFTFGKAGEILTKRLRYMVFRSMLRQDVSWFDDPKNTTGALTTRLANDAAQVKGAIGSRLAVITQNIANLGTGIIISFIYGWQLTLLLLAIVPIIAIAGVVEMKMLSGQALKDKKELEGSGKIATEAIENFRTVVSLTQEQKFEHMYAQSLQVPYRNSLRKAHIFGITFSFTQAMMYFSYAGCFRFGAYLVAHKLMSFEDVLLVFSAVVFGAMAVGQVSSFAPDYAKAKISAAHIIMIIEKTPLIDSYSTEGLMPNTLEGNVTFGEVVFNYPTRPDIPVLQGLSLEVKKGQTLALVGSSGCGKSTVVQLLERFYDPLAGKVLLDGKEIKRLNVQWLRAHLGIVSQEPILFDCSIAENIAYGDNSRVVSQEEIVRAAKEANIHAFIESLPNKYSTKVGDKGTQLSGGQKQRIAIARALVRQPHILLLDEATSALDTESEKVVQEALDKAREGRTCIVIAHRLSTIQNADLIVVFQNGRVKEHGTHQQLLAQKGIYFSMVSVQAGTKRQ

For the compound `CC[C@]1(O)C[C@H]2CN(CCc3c([nH]c4ccccc34)[C@@](C(=O)OC)(c3cc4c(cc3OC)N(C=O)[C@H]3[C@@](O)(C(=O)OC)[C@H](OC(C)=O)[C@]5(CC)C=CCN6CC[C@]43[C@@H]65)C2)C1` [VINCRISTINE], the half-inhibitory concentration (IC50) is 0.0031 µM in data set [1] and 0.311 µM in [2].
With `CC(=O)O[C@H]1C(=O)[C@@]2(C)[C@H]([C@H](OC(=O)c3ccccc3)[C@]3(O)C[C@H](OC(=O)[C@H](O)[C@@H](NC(=O)c4ccccc4)c4ccccc4)C(C)=C1C3(C)C)[C@]1(OC(C)=O)CO[C@@H]1C[C@@H]2O` [PACLITAXEL], the half-maximal inhibitory concentration (IC50) in data set [2] was 183 µM.
`C=C1[C@@H](OC(C)=O)CC[C@@]2(C)C[C@H](OC(C)=O)C3=C(C)C[C@H](OC(=O)/C=C/c4ccccc4)[C@@H]([C@@H](OC(C)=O)[C@H]12)C3(C)C`: the Activity is reported as 123% in [3]; 125% in data set [4]; 95% in [8]; 126% in data set [9]; 140% in data set [10]; 280% in data set [11]. Further, the Activity in [12] is 87%; in [13] it was 75%; in data set [14], 62%. Besides, the IC50 in data set [5] is 154 µM; in data set [6], > 169 µM; in [7], > 169 µM.
For the compound `C=C1[C@@H](OC(C)=O)CC[C@@]2(C)C[C@H](OC(C)=O)C3=C(C)C[C@H](OC(C)=O)[C@@H]([C@@H](O)[C@H]12)C3(C)C`, the Activity is given as 99% in [3]; 111% in data set [4]; 101% in [8]; 99% in data set [9]; 144% in [10]; 259% in data set [11]. In addition, the results for the Activity in data set [12], in data set [13] and in [14] were 89%, 84% and 74%, respectively. Also, the IC50 in data set [5] came out at 130 µM; in [6] it was 104 µM; in [7], 122 µM.
On to `COc1cccc2c1C(=O)c1c(O)c3c(c(O)c1C2=O)C[C@@](O)(C(=O)CO)C[C@@H]3O[C@H]1C[C@H](N)[C@H](O)[C@H](C)O1` [DOXORUBICIN], for which the 50% inhibitory concentration (IC50) in [1] was determined as 0.0057 µM; in [2], 0.298 µM.
With `C=C1[C@@H](OC(C)=O)CC[C@@]2(C)C[C@H](OC(=O)/C=C/c3ccccc3)C3=C(C)C[C@H](O)[C@@H]([C@@H](OC(C)=O)[C@H]12)C3(C)C`, the Activity in data set [3] is 109%; in data set [4], 113%; in [8], 114%; in data set [9], 113%; in data set [10], 190%; in data set [11], 497%. For the same compound, the Activity in data set [12] was determined as 105%; in [13] it was 102%; in [14], 110%. The IC50 is 71.7 µM in [5], 11.5 µM in [6] and 15.3 µM in data set [7].
Turning to `C=C1[C@@H](OC(C)=O)CC[C@@]2(C)C[C@H](O)C3=C(C)C[C@H](OC(=O)/C=C/c4ccccc4)[C@@H]([C@@H](OC(C)=O)[C@H]12)C3(C)C`, the Activity in data set [3] is on record as 107%; in data set [4] it was 190%; in data set [8], 121%; in data set [9] it was 132%; in data set [10], 272%; in [11], 527%. Further, the values for the Activity in data set [12], in data set [13] and in data set [14] were 111%, 146% and 116%, respectively. Also, the half-inhibitory concentration (IC50) is 13.5 µM in [5]; 37.4 µM in data set [6]; 15.7 µM in data set [7]; 6.1 µM in data set [1]; 8 µM in data set [2]. Further, the viability at 0.2 µM in [15] was 89%; in data set [18], 105%. The viability at 2 µM amounted to 74% in [16] and 86% in data set [19]. Further, the viability at 10 µM in [17] was determined as 27%; in [20], 38%.
`C=C1[C@@H](OC(C)=O)CC[C@@]2(C)[C@@H](O)[C@H](OC(C)=O)C3=C(C)C[C@H](OC(C)=O)[C@@H]([C@@H](OC(C)=O)[C@H]12)C3(C)C`: the Activity in [3] is 102%; in [4], 110%; in data set [8], 86%; in data set [9], 101%; in data set [10], 108%; in data set [11], 168%. The Activity in data set [12] was 79%; in data set [13] it was 58%; in data set [14] it was 37%. Further, the IC50 in data set [5] is 129 µM; in data set [6] it was > 192 µM; in data set [7], 128 µM.
For the compound `C=C1[C@@H](OC(C)=O)CC[C@@]2(C)C[C@H](OC(C)=O)C3=C(C)C[C@H](O)[C@@H]([C@@H](OC(C)=O)[C@H]12)C3(C)C`, the Activity in data set [3] is 104%; in data set [4], 148%; in data set [8], 102%; in data set [9], 86%; in data set [10], 147%; in data set [11] it was 242%. Also, the Activity is reported as 94% in data set [12], 79% in data set [13] and 53% in [14]. Besides, the 50% inhibitory concentration (IC50) in data set [5] worked out at 133 µM; in [6], 80 µM; in data set [7] it was 216 µM. Moreover, the viability at 0.2 µM in [15] turned out to be 97%; in [18] it was 101%. Moreover, the viability at 2 µM was found to be 95% in data set [16] and 96% in [19]. Besides, the viability at 10 µM in [17] is 20%; in [20], 77%.

By IC50 is commonly meant the midpoint of a concentration-inhibition curve.
